# Measured values reported in ChEMBL document CHEMBL1201862, “PubChem BioAssay data set” (2004).
# Calls of active or inactive are those of the source.
# What was measured:
# [1] = biological target: T1, Caspase-6 (Homo sapiens, UniProt P55212); test: inhibition of CASP6 peptide cleavage – biochemical, VEID-R110 fluorescence, cherry-pick, dose response (AID 720632)
# T1 sequence (P55212 whole entry): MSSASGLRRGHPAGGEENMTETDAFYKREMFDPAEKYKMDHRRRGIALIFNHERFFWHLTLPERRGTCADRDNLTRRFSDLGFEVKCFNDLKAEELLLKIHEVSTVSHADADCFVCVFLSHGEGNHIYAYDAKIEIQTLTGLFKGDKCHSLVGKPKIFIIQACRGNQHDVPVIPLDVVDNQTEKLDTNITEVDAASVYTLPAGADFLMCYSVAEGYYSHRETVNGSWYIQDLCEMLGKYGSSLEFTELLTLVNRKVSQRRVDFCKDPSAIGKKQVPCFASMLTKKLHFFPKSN
# [2] = biological target: Voltage-dependent T-type calcium channel subunit alpha-1H (Homo sapiens, UniProt O95180); format: functional;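 note: channel activity triggered by adding a high calcium stimulation buffer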
# [3] = Luminescence Cell-Based Dose Response HTS to Identify Inhibitors of 5'UTR Stem-Loop Driven Prion Protein mRNA Translation in H4 Neuroglioblastoma Cells. [Related pubchem assays: 1827 (Project Summary), 1813 (Primary HTS)]; format: functional
# [4] = luciferase reporter signal suppression in cells – H4 neuroglioma cells, luminescence, dose response (AID 1990); format: functional, cell-based
# [5] = alpha-synuclein stem-loop luciferase translation blockers – H4 neuroglioma cells, luminescence, confirmation (AID 1988); format: functional, cell-based
# [6] = biological target: Cytochrome P450 2D6 (Homo sapiens, UniProt P10635); test: qHTS Assay for Inhibitors and Substrates of Cytochrome P450 2D6. [Related pubchem assays: 410 ]; format: ADME; conditions: read-out: Potency
# [7] = cells
# [8] = viability of uninfected HEp-2 cells – cell-based, HTS, cytotoxicity control for RSV inhibitor project, dose response (AID 2410); format: functional; conditions: human respiratory syncytial virus
# [9] = general mammalian cell viability loss – inhibitor set, cherry-pick, set 2, cytotoxicity control for miR-122 modulator project, dose response (AID 720697); format: functional, cell-based
# [10] = biological target: Large T antigen (Simian virus 40, UniProt P03070); format: functional, Betapolyomavirus macacae;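 note: Confirmatory-stage PubChem screen for compounds that inhibit SV40 T antigen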
# [11] = Luminescence Cell-Based Dose Confirmation HTS to Identify Inhibitors of Platelet Dense Granule Release. [Related pubchem assays: 1663 (Primary HTS), 1678 (Summary of Project)]; format: functional
# [12] = biological target: Luciferin 4-monooxygenase (Photinus pyralis, UniProt P08659); test: inhibition of purified Photinus pyralis luciferase – biochemical, luminescence, dose response (AID 1891)
# [13] = biological target: T2, Alkaline phosphatase, tissue-nonspecific isozyme (Homo sapiens, UniProt P05186); test: potency against alkaline phosphatase TNAP – biochemical, luminescent, dose response, SAR follow-up (AID 1056)
# T2 sequence (P05186 whole entry): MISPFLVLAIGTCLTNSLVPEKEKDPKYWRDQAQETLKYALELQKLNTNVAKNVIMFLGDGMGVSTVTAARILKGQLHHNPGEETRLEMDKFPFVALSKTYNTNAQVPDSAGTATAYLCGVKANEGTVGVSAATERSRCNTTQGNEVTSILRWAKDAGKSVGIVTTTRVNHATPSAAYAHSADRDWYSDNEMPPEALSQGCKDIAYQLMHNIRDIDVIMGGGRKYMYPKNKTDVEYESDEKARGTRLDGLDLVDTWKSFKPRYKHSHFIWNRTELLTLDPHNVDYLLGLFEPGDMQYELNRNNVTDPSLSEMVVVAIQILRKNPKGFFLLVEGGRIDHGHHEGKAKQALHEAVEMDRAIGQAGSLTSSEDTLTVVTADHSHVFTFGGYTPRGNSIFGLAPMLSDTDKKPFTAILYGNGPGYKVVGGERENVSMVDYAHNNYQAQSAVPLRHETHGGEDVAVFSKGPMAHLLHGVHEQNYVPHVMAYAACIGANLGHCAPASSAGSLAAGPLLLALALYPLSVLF
# [14] = biological target: Glyceraldehyde-3-phosphate dehydrogenase (Homo sapiens, UniProt P04406)
# [15] = biological target: T3, Protein skinhead-1 (Caenorhabditis elegans, UniProt P34707); format: functional
# T3 sequence (P34707 whole entry): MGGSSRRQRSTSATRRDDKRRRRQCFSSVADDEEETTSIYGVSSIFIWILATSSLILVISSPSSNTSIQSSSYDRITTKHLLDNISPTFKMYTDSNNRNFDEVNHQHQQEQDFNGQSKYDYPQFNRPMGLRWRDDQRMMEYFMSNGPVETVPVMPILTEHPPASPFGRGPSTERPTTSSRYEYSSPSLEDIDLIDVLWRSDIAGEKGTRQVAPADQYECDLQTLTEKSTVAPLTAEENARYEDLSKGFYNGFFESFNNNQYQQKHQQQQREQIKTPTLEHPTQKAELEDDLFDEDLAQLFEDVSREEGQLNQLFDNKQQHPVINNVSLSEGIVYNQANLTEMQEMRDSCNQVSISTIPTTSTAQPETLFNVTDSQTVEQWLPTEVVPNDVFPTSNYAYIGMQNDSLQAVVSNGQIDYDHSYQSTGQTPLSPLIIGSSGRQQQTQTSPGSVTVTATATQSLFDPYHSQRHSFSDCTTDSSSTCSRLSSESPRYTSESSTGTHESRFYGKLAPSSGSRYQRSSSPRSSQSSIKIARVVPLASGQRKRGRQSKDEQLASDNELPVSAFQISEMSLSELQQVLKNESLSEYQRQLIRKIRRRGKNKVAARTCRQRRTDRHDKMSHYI
# [16] = biological target: T4, Aminopeptidase N (Plasmodium falciparum FcB1/Columbia, UniProt O96935); test: malaria alanyl aminopeptidase activity blockers – biochemical, fluorogenic H-Leu-NHMec substrate, 1536-well (AID 1445); set-up: species or system Plasmodium falciparum 3D7, 3D7
# T4 sequence (O96935 whole entry): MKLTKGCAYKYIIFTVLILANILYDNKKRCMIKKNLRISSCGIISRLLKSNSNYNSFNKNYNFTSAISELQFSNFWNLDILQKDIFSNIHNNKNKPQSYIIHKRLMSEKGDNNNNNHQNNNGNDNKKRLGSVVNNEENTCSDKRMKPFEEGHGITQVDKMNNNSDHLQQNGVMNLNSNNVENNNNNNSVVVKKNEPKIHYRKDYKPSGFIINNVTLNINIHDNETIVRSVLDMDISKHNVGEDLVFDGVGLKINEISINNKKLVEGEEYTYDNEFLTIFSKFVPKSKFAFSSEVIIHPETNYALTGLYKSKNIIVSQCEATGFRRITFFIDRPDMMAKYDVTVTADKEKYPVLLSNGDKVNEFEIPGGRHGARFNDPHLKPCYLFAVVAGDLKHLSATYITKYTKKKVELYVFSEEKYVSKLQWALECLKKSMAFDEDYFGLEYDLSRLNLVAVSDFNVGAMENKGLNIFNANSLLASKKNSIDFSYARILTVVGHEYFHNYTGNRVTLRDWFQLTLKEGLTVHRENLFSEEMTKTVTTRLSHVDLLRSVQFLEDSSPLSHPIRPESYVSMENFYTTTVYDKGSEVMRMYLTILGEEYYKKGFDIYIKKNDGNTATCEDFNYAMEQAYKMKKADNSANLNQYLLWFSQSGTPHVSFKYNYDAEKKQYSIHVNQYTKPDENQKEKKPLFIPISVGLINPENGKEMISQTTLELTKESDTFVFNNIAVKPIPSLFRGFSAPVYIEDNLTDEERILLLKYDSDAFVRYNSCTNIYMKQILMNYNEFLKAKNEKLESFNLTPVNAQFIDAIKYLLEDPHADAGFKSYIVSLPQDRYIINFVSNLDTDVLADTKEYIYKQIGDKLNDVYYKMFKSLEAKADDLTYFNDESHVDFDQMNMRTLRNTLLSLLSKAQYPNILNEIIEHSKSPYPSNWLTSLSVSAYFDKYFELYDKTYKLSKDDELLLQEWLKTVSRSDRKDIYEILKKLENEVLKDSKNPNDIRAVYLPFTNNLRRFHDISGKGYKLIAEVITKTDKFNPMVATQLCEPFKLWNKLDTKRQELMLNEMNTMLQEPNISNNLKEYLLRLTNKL
# [17] = biological target: T5, Leucine aminopeptidase (Plasmodium falciparum 3D7, UniProt Q8IL11); test: P. falciparum M17LAP inhibitors, primary screen, biochemical, fluorogenic H-Leu-NHMec substrate, 1536-well (AID 1619); format: functional
# T5 sequence (Q8IL11 whole entry): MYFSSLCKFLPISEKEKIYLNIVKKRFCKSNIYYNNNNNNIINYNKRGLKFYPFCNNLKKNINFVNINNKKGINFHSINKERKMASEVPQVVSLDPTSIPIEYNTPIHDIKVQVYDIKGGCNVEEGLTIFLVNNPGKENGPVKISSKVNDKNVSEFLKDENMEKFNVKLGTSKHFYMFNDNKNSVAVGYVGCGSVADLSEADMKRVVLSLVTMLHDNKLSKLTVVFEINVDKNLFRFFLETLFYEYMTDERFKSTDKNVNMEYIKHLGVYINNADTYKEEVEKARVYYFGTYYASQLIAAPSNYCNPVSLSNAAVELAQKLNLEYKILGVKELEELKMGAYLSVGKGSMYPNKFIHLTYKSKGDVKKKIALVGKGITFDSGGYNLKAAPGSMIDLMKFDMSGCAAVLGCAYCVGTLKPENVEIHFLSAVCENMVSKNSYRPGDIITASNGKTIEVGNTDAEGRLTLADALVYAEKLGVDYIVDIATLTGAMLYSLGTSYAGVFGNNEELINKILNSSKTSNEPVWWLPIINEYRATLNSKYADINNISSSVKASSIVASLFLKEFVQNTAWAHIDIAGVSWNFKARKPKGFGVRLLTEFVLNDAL
# [18] = biological target: FAD-linked sulfhydryl oxidase ALR (Homo sapiens, UniProt P55789); test: ALR-catalysed DTT oxidation blockers – biochemical, H2O2 detection, luminescence, cherry-pick, dose response (AID 493248)
# [19] = biological target: Cytochrome P450 3A4 (Homo sapiens, UniProt P08684); conditions: Potency;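 note: confirmatory qHTS run detecting inhibitors and substrates of CYP3A4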
# Chain of Cytochrome P450 3A4 (P08684 whole entry): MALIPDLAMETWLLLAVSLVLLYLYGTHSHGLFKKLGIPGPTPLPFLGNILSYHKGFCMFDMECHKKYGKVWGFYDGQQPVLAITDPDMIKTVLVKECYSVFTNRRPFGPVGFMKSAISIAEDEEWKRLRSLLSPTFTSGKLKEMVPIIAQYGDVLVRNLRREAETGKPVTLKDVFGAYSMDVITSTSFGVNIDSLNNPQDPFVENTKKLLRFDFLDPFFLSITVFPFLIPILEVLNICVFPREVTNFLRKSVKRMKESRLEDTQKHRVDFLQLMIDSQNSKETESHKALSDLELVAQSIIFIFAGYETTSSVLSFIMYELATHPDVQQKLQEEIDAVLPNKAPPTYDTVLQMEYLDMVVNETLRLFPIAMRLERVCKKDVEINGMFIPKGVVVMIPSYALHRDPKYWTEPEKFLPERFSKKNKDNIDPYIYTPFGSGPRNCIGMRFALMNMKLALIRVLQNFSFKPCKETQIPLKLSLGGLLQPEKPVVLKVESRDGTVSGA
# Chain of Voltage-dependent T-type calcium channel subunit alpha-1H (O95180 whole entry): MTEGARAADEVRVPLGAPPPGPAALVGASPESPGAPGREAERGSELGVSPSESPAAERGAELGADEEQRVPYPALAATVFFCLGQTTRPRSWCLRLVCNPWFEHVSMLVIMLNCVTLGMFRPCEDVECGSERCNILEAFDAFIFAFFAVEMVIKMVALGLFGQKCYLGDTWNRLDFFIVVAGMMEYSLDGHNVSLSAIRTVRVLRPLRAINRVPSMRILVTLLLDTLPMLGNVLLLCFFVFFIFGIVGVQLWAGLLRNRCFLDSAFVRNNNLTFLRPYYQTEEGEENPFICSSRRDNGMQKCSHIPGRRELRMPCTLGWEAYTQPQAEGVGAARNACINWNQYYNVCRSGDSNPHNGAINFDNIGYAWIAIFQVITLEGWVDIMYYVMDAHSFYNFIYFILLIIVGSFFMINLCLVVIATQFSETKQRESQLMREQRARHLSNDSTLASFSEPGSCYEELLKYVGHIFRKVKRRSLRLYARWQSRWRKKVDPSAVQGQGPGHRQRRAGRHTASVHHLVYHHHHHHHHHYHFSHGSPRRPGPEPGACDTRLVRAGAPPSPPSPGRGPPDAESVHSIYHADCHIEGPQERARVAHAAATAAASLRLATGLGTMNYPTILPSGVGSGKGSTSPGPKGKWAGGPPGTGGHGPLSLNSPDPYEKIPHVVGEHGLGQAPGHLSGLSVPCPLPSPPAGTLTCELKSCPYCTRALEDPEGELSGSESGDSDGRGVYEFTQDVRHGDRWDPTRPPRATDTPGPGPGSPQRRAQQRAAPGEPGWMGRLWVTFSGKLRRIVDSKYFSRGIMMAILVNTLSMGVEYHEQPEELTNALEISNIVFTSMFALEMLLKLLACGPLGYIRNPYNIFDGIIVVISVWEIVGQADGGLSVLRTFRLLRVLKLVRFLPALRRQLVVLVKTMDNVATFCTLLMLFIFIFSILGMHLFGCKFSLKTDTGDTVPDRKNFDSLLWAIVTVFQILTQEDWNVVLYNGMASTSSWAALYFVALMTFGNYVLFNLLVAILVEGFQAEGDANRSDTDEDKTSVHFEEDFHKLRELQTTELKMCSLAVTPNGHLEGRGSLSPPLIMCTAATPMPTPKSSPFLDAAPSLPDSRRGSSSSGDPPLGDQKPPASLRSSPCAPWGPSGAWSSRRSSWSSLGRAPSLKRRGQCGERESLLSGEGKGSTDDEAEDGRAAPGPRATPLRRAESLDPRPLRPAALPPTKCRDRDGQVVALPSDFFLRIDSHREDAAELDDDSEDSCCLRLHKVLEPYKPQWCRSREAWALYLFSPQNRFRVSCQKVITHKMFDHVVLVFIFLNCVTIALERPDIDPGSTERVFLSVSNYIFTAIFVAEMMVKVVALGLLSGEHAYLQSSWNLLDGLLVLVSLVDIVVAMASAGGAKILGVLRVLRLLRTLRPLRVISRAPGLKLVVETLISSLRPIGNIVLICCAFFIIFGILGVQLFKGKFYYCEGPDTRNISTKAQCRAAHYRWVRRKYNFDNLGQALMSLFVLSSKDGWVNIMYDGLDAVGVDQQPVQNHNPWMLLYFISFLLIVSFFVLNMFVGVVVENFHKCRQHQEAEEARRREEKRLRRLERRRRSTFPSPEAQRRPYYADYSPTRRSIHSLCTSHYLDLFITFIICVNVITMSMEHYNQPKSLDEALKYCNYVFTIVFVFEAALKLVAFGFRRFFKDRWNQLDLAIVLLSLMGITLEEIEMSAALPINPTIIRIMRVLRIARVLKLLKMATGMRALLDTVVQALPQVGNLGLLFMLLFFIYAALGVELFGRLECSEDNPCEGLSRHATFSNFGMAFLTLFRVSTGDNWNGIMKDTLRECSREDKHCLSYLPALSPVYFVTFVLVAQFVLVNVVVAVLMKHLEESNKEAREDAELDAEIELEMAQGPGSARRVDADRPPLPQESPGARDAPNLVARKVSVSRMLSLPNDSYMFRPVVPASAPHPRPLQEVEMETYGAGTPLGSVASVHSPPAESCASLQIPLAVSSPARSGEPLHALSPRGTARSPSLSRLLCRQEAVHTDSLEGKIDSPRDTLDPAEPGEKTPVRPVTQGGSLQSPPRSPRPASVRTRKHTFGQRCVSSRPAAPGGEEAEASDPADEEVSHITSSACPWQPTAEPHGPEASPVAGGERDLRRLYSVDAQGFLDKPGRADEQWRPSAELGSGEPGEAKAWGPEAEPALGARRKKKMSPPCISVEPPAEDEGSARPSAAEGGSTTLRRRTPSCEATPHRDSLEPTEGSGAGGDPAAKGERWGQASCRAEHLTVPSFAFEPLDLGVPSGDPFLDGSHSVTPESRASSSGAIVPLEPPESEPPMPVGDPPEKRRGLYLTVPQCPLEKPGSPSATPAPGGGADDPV
# Chain of Cytochrome P450 2D6 (P10635 whole entry): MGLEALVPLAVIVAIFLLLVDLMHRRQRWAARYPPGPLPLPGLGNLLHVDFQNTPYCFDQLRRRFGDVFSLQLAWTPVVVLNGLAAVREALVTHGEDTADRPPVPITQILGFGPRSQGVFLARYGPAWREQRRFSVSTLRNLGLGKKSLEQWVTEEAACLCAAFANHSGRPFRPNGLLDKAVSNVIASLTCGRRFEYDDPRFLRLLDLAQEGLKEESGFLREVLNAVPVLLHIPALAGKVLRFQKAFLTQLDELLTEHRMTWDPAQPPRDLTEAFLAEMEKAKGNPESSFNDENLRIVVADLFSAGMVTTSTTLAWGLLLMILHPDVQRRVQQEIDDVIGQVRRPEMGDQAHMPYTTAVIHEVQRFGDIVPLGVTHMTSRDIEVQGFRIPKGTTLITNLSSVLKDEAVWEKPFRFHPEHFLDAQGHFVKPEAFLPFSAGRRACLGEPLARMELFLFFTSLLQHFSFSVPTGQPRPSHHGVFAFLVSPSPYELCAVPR
# Chain of Glyceraldehyde-3-phosphate dehydrogenase (P04406 whole entry): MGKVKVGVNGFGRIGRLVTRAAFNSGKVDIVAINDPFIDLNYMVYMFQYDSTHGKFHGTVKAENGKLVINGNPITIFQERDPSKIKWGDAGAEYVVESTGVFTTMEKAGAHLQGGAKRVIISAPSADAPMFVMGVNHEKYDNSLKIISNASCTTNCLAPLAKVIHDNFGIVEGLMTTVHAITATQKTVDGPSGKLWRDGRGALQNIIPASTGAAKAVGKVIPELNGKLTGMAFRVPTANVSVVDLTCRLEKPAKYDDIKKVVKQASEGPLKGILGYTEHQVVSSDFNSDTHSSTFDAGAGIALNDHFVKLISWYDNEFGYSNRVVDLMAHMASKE
# Chain of Luciferin 4-monooxygenase (P08659 whole entry): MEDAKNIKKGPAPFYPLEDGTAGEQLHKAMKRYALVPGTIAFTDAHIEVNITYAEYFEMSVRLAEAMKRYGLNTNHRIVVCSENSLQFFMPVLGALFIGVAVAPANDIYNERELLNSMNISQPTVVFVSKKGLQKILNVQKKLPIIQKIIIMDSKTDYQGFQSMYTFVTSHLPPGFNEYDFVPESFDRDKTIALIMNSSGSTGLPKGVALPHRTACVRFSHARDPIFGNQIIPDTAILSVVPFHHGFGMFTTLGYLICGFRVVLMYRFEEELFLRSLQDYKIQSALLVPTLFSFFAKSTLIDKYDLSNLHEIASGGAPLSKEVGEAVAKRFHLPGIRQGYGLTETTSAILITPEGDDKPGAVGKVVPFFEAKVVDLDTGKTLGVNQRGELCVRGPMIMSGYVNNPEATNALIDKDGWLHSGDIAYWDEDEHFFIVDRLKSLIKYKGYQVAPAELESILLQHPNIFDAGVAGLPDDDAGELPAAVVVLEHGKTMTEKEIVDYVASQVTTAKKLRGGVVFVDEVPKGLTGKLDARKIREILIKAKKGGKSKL
# Chain of FAD-linked sulfhydryl oxidase ALR (P55789 whole entry): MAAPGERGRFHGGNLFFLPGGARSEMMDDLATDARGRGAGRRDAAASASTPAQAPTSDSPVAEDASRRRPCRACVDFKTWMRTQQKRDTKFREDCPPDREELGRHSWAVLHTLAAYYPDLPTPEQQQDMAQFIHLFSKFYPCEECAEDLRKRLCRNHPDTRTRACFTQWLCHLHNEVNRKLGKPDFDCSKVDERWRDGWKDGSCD
smiles,measurement,setting,value
O=C(O)CCN1CC2([N+](=O)[O-])C=CC(=O)C([N+](=O)[O-])(C1)C2CC(=O)c1ccccc1 (stereo unspecified),AC50,[1],15.7 µM (active)
O=C(Nc1ccccc1Cl)c1cc(S(=O)(=O)N2CCCCC2)ccc1N1CCOCC1,EC50,[2],5.14 µM (active)
Cc1c(O)c(=O)ccn1Cc1ccccc1,EC50,[3],3.71 µM (active)
same,EC50,[4],11.3 µM (active)
same,EC50,[5],> 120 µM (not active)
same,AC50,[6],3.16 µM (inconclusive)
CCn1cc(C(=O)NCc2cccc(F)c2)c(=O)c2cc(F)c(N3CCN(C(=O)c4ccco4)CC3)cc21,IC50,[7],48.9 µM (active)
same,CC50,[8],> 50 µM (active)
COC(=O)c1cc(NS(=O)(=O)c2ccc3c(c2)CCC(=O)N3)cc(C(=O)OC)c1,AC50,[9],3.3 µM (active)
COc1cc(OC)c(NC(=O)CS(=O)(=O)Cc2nc(-c3ccc(C)cc3)oc2C)cc1Cl,EC50,[2],5.56 µM (active)
O=c1cc(-c2ccc(O)c(O)c2)oc2c(C3O[C@H](CO)[C@@H](O)[C@H](O)[C@H]3O)c(O)cc(O)c12 (stereo partly specified),IC50,[7],18 µM (active)
same,IC50,[10],3.15 µM (active)
CCn1c(C(=O)N2CCC(C(=O)NCCCSC3CCCCC3)CC2)cc2sccc21,EC50,[2],3.51 µM (active)
same,EC50,[11],> 112 µM (not active)
same,EC50,[12],25 µM (active)
COc1ccc(OC)c(CNC(=O)c2coc(=O)c3ccccc23)c1,IC50,[7],29.3 µM (active)
same,CC50,[8],37.8 µM (active)
same,EC50,[11],19.5 µM (active)
same,EC50,[12],> 112 µM (not active)
CCOC(=O)c1cc(-c2ccc(Cl)cc2)n[nH]1,IC50,[13],2.35 µM (active)
same,IC50,[14],> 100 µM (not active)
COc1ccccc1C(=O)Nc1ccc2ccccc2c1,IC50,[15],42.7 µM (active)
same,IC50,[13],> 10 µM (inactive)
same,IC50,[14],> 10 µM (inconclusive)
Cc1cc(C)cc(-n2nnc(C(=O)NCc3ccc4c(c3)OCO4)c2N)c1,EC50,[2],2.39 µM (active)
Cc1ccc(-c2cc(C(=O)O)[nH]n2)c(C)c1,IC50,[13],3.34 µM (active)
same,IC50,[14],> 100 µM (not active)
CCOC(=O)CC1C(=O)NCCN1c1nc2ccc(C)cn2c(=O)c1/C=C1\SC(=S)N(C(C)CC)C1=O (stereo unspecified),CC50,[8],13.3 µM (active)
same,IC50,[16],49.8 µM (active)
CCOc1cc(/C=C(/C#N)c2nc3ccccc3[nH]2)ccc1OCc1ccc(C(=O)O)o1,IC50,[17],9.14 µM (active)
same,IC50,[16],60.8 µM (active)
OCC1(CCOc2ccccc2)CCN(Cc2cccn2-c2ncccn2)CC1,IC50,[7],17.9 µM (active)
same,CC50,[8],> 50 µM (active)
O=S(=O)(Nc1ccc2ncccc2c1)c1cc(Cl)ccc1Cl,IC50,[13],> 100 µM (inactive)
same,IC50,[14],> 100 µM (not active)
Cc1ccc2[nH]c(-c3cccc(N)c3)cc2c1,IC50,[7],41.4 µM (active)
same,CC50,[8],> 50 µM (active)
same,AC50,[18],13.2 µM (active)
O=c1c(O)c(-c2cccc(O)c2)oc2ccccc12,AC50,[6],25.1 µM (inconclusive)
Cc1nc2ccccn2c(=O)c1CCN1CCC(C(=O)c2ccc(F)cc2)CC1 [PIRENPERONE],AC50,[19],20 µM (inconclusive)
same,AC50,[6],7.94 µM (inconclusive)
